Entries after “also recorded” stand apart in the source; their conditions may differ.

Results on three molecules are retold here after US5869650A, “Dendroamide compounds and their use in chemosensitizing multidrug resistant cells” (Fox Chase Cancer Center, priority 1996, dated 1999).

Data set [1] has as its system MCF-7 cells. In words: [3H]vinblastine accumulation in MCF-7 cells. In kind it is cell-based. The note with it: parental MCF-7 cells. As to the method: D. Smith et al., Mol. Pharm.
[^3 H]vinblastine was then added and its intracellular accumulation after 60 minutes was determined.

Data set [2] deals with MDR cells. Particulars: cited from earlier work.
In data set [3] the test system is MCF-7/VP cells (express multidrug resistance-related protein (MRP)). In words: Chemosensitization of MCF-7/VP cells (sulforhodamine binding assay, cytotoxicity of anticancer drugs).
Data set [4] has as its system MCF-7/ADR cells (overexpress P-glycoprotein). In words: [3H]vinblastine accumulation in MCF-7/ADR cells. It is filed as cell-based. Here is the method:
The reduction in intracellular accumulation of anticancer drugs due to expression of P-glycoprotein can be at least partially reversed by compounds which interact with the drug transporter.
D. Smith et al., Mol. Pharm. 45:241-247 (1995), using 20 nm [^3 H]vinblastine sulfate (10-15 Ci/mmole) from the Amersham Corporation.
[^3 H]vinblastine was then added and its intracellular accumulation after 60 minutes was determined. Values shown in FIG. 1 represent the mean ± standard deviation accumulation of [^3 H]vinblastine in triplicate samples in one of three similar experiments.

Data set [5] concerns MCF-7/ADR cells. Put plainly: Chemosensitization of MCF-7/ADR cells (sulforhodamine binding assay, cell killing by anticancer drugs). In kind it is cell-based. As to the method:
FIGS. 2A and 2B show the chemosensitization of MCF-7/ADR breast carcinoma cells by Compound A. In FIG. 2A, MCF-7/ADR cells were treated with the indicated concentrations of Compound A in the presence of 15 μM daunomycin (.quadrature.), 200 nM actinomycin D (Δ) or 4 μM cisplatin (.largecircle.). In FIG. 2B, MCF-7 cells (.diamond-solid.) or MCF-7/ADR cells treated with 1% ethanol (.diamond.), 0.6 (.quadrature.) or 2.5 μM of Compound A (Δ) were incubated with the indicated concentrations of vinblastine.
The ability of Compound A to reverse MDR was examined using MCF-7/ADR cells breast carcinoma cells which were obtained as described in Example 5. The effects of Compound A on cell growth were characterized using the sulforhodamine binding assay (P. Skehan et al., J. Natl. Cancer Inst. 82:1107-1112 (1990)) as described in C. D. Smith et al., Oncology Res. 6:211-218 (1994) and C. D. Smith et al., Mol. Pharm. 45:241-247 (1995). Cell survival was assessed after 48 hours of treatment and was expressed as the percentage of cells killed.
The results of the chemosensitization tests showing the effect of the MDR reversing agent Compound A on cell killing by anticancer drugs in the multiple drug resistant MCF-7/ADR cells are shown in FIGS. 2A and 2B. The MCF-7/ADR cells were treated with the indicated concentrations of Compound A in the presence of daunomycin, actinomycin D and or cisplatin. Values shown in FIGS. 2A and 2B represent the mean±standard deviation for triplicate samples in one of two similar experiments.

For data set [6], the target named is T1, P-glycoprotein (Homo sapiens, UniProt P08183). In words: biochemical.
T1 sequence (P08183 whole entry): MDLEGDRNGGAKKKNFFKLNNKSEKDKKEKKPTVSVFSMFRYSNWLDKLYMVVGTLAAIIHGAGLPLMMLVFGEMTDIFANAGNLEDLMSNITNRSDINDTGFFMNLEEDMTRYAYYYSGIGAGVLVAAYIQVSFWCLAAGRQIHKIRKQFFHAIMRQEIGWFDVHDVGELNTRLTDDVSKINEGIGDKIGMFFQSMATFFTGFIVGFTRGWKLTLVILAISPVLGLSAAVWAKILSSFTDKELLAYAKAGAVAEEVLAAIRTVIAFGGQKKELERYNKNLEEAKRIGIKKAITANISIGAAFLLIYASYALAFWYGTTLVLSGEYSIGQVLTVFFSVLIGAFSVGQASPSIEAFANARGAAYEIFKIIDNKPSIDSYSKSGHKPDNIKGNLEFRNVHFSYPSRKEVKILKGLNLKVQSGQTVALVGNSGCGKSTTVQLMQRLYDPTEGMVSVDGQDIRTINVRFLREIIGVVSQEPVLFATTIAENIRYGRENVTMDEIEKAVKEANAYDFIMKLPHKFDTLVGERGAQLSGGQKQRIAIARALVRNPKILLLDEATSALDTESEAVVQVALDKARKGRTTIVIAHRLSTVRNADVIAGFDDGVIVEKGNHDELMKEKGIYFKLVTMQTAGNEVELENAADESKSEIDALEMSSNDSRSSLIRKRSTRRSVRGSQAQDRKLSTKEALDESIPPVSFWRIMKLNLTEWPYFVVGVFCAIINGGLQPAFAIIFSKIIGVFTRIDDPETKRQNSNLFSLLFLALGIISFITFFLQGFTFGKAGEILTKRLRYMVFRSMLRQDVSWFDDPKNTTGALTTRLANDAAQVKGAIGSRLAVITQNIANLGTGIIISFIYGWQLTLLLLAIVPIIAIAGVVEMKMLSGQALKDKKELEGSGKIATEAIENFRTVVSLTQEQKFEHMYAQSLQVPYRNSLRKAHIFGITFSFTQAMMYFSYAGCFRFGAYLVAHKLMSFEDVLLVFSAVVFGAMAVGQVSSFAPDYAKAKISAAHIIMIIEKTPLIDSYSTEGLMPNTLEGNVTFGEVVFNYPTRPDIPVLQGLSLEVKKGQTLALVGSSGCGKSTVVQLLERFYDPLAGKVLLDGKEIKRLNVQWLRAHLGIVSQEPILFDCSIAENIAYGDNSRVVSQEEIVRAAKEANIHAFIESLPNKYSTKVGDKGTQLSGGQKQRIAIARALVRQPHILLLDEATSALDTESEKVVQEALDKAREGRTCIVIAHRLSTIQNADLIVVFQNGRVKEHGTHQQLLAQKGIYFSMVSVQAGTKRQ
Data set [7] addresses T1, P-glycoprotein.
[8] abbreviates: Tsuruo et al., Cancer Res. 41:1967 (1981).

In the case of `COc1ccc(CCN(C)CCCC(C#N)(c2ccc(OC)c(OC)c2)C(C)C)cc1OC` (stereo not shown) [verapamil], in data set [1], the “effect on accumulation of [3H]vinblastine (in words)” value is listed as “Neither Compound A nor verapamil increased the accumulation”. Further, in data set [2] (setting [8]), the “intracellular accumulation of anticancer drugs (in words)” value was “promote intracellular accumulation of those drugs” and the “sensitization of MDR cells to anticancer drugs (in words)” value was “sensitize MDR cells to anticancer drugs”. Besides, the “reversing activity in cultured cells (in words)” value in data set [2] (cultured cells) was “potent and effective reversing agent”.

Take `CC[C@]1(O)C[C@H]2CN(CCc3c([nH]c4ccccc34)[C@@](C(=O)OC)(c3cc4c(cc3OC)N(C=O)[C@H]3[C@@](O)(C(=O)OC)[C@H](OC(C)=O)[C@]5(CC)C=CCN6CC[C@]43[C@@H]65)C2)C1` [vincristine, reference compound]: the “fold resistance of MCF-7/VP cells in comparison with MCF-7 cells” value in data set [3] (vincristine, MCF-7/VP vs MCF-7 cells) amounted to 15 fold.

For `Cc1oc2nc1C(=O)N[C@H](C(C)C)c1nc(cs1)C(=O)N[C@H](C)c1nc(cs1)C(=O)N[C@@H]2C` [Compound A, Cyclo-D-Val-Tzl-D-Ala-Tzl-D-Ala-mOzl], the “ability to increase the accumulation of [3H]vinblastine (in words)” value in data set [4] (Compound A compared with verapamil) is listed as “more potent than verapamil; also recorded: strongly enhanced”. Also, the activity at 5 µM in data set [4] (Homo sapiens, NCI/ADR-RES, 1 h, 5 μM, 30 min preincubation, accumulation after 60 min, FIG. 1) was 750%. Besides, the EC (maximal effect) in data set [4] (Homo sapiens, NCI/ADR-RES, 1 h, FIG. 1, read-out: concentration of maximal effect on [3H]vinblastine accumulation) was determined as 20 µM. Besides, the “effect on accumulation of [3H]vinblastine (in words)” value in data set [1] is reported as “Neither Compound A nor verapamil increased the accumulation”. Besides, the “active concentrations for chemosensitization (in words)” value in data set [5] (daunomycin or actinomycin D, FIG. 2A) is “activity at submicromolar concentrations”. Further, in data set [5] (vinblastine, FIG. 2B), the “reversal of P-glycoprotein-mediated MDR (in words)” value is on record as “completely overcomes P-glycoprotein-mediated MDR”. Also, the “effect on cell killing by actinomycin D” value in data set [5] (with actinomycin D (200 nM in FIG. 2A), 48 hours) was “killed more effectively; also recorded: markedly potentiating cell killing”. In addition, in data set [5] (with cisplatin (4 μM in FIG. 2A), 48 hours), the “effect on cytotoxicity of cisplatin” value is recorded as “did not alter the cytotoxicity of cisplatin”. Also, the “effect on cell killing by daunomycin” value in data set [5] (with daunomycin (15 μM in FIG. 2A), 48 hours) is given as “killed more effectively; also recorded: markedly potentiating cell killing”. In addition, the “effect on cell killing by vinblastine” value in data set [5] (with vinblastine, 48 hours) was “markedly potentiating cell killing”. In addition, 500 nM corresponded to half-maximal inhibition in data set [6] (IC50). For the same molecule, the “reversal of MRP-mediated resistance to vincristine (in words)” value in data set [3] (MCF-7/VP cells, 10 μM, 48 hours) is listed as “fully reversed; also recorded: fully reverses MRP-mediated resistance”. In data set [3] (MCF-7/VP cells, with cisplatin), the “effect on responses to cisplatin” value is on record as “did not modulate responses to cisplatin”. For the same molecule, the “binding of [3H]azidopine to P-glycoprotein (in words)” value in data set [7] is listed as “progressive decreases in binding”.
